Measurements reported in patent US11963995B2, “Methods comprising desmopressin” (Ferring B.V., priority 2008, dated 2024).

Test system: adult patients with nocturia
Assay: Change in urine volume (nocturnal, total) from baseline to Day 28 (Part I)
Type: in vivo, human
Conditions: for median decrease of nocturnal urine volume compared to baseline before treatment: Day 28; for Change from baseline to final visit (Day 28) of nocturnal urine volume, mean / Change from baseline to final visit (Day 28) of nocturnal urine volume, median: ITT, Part I
Description: As used herein, the term “nocturnal urine” refers to the total urine volume from 5 minutes after bedtime until rising in the morning, including the first void within 30 minutes of rising.
All treatments were administered orally once per night approximately 1 hour prior to bedtime; subjects were instructed to limit their fluid intake prior to drug self-administration. […] Randomization was to be stratified by age (<65, ≥65 years) and by the absence/presence of nocturnal polyuria, defined as a ratio of nighttime urine volume/24-hour urine volume 33%. To achieve the desired number of subjects within each stratum, enrollment of subjects in a particular stratum (age and/or presence/absence of nocturnal polyuria) could be halted. If this was necessary, all investigative sites were to be informed in writing at least 1 week in advance to stop screening in a population of subjects.
Changes in urine volume from baseline to the end of Day 28 were also assessed and included herein.
Missing values concerning number of nocturnal voids at Day 8, Day 15, Day 22, and Day 28 in Part I were imputed using last observation carried forward (LOCF). Missing values concerning sleep disturbance and urine volume (for average 24-hour urine volume and average nocturnal urine volume) were not imputed.

[1] = 10 ug, females over 50 years of age
[2] = 25 ug, females over 50 years of age
[3] = 50 ug, females over 50 years of age
[4] = 100 ug, females over 50 years of age
[5] = all males with monitoring, 10 ug dose
[6] = all males with monitoring, 25 ug dose
[7] = all males with monitoring, 50 ug dose
[8] = all males with monitoring, 100 ug dose
[9] = females over 65 years of age, 10 ug dose
[10] = females over 65 years of age, 25 ug dose
[11] = females over 65 years of age, 50 ug dose

NC(=O)CC[C@@H]1NC(=O)[C@H](Cc2ccccc2)NC(=O)[C@H](Cc2ccc(O)cc2)NC(=O)CCSSC[C@@H](C(=O)N2CCC[C@H]2C(=O)N[C@H](CCCN=C(N)N)C(=O)NCC(N)=O)NC(=O)[C@H](CC(N)=O)NC1=O [desmopressin]
median decrease of nocturnal urine volume compared to baseline before treatment (10 μg, all females): 179 mL | Change from baseline to final visit (Day 28) of nocturnal urine volume, mean (10 ug, all females): -207 mL | Change from baseline to final visit (Day 28) of nocturnal urine volume, median (10 ug, all females): -179 mL | median decrease of nocturnal urine volume compared to baseline before treatment (10 μg, all groups): 150 mL | Change from baseline to final visit (Day 28) of nocturnal urine volume, mean (10 ug, all groups): -164 mL | Change from baseline to final visit (Day 28) of nocturnal urine volume, median (10 ug, all groups): -150 mL | median decrease of nocturnal urine volume compared to baseline before treatment (10 μg, females over 50 years of age): 150 mL | Change from baseline to final visit (Day 28) of nocturnal urine volume, mean [1]: -197 mL | Change from baseline to final visit (Day 28) of nocturnal urine volume, median [1]: -150 mL | median decrease of nocturnal urine volume compared to baseline before treatment (25 μg, all females): 298 mL | Change from baseline to final visit (Day 28) of nocturnal urine volume, mean (25 ug, all females): -307 mL | Change from baseline to final visit (Day 28) of nocturnal urine volume, median (25 ug, all females): -298 mL | Change from baseline to final visit (Day 28) of nocturnal urine volume, mean (25 ug, all groups): -224 mL | Change from baseline to final visit (Day 28) of nocturnal urine volume, median (25 ug, all groups): -233 mL | median decrease of nocturnal urine volume compared to baseline before treatment (25 μg, females over 50 years of age): 383 mL | Change from baseline to final visit (Day 28) of nocturnal urine volume, mean [2]: -356 mL | Change from baseline to final visit (Day 28) of nocturnal urine volume, median [2]: -383 mL | median decrease of nocturnal urine volume compared to baseline before treatment (25 μg, females over 65 years of age): 383 mL | Change from baseline to final visit (Day 28) of nocturnal urine volume, mean (50 ug, all females): -257 mL | Change from baseline to final visit (Day 28) of nocturnal urine volume, median (50 ug, all females): -204 mL | Change from baseline to final visit (Day 28) of nocturnal urine volume, mean (50 ug, all groups): -272 mL | Change from baseline to final visit (Day 28) of nocturnal urine volume, median (50 ug, all groups): -233 mL | Change from baseline to final visit (Day 28) of nocturnal urine volume, mean [3]: -249 mL | Change from baseline to final visit (Day 28) of nocturnal urine volume, median [3]: -196 mL | Change from baseline to final visit (Day 28) of nocturnal urine volume, mean (100 ug, all females): -321 mL | Change from baseline to final visit (Day 28) of nocturnal urine volume, median (100 ug, all females): -283 mL | Change from baseline to final visit (Day 28) of nocturnal urine volume, mean (100 ug, all groups): -312 mL | Change from baseline to final visit (Day 28) of nocturnal urine volume, median (100 ug, all groups): -283 mL | Change from baseline to final visit (Day 28) of nocturnal urine volume, mean [4]: -317 mL | Change from baseline to final visit (Day 28) of nocturnal urine volume, median [4]: -275 mL | median decrease of nocturnal urine volume compared to baseline before treatment (100 μg, males with monitoring): 264 mL | Change from baseline to final visit (Day 28) of nocturnal urine volume, mean [5]: -122 mL | Change from baseline to final visit (Day 28) of nocturnal urine volume, median [5]: -83 mL | Change from baseline to final visit (Day 28) of nocturnal urine volume, mean [6]: -146 mL | Change from baseline to final visit (Day 28) of nocturnal urine volume, median [6]: -167 mL | Change from baseline to final visit (Day 28) of nocturnal urine volume, mean [7]: -286 mL | Change from baseline to final visit (Day 28) of nocturnal urine volume, median [7]: -235 mL | Change from baseline to final visit (Day 28) of nocturnal urine volume, mean [8]: -296 mL | Change from baseline to final visit (Day 28) of nocturnal urine volume, median [8]: -264 mL | Change from baseline to final visit (Day 28) of nocturnal urine volume, mean (all males, 10 ug dose): -125 mL | Change from baseline to final visit (Day 28) of nocturnal urine volume, median (all males, 10 ug dose): -117 mL | Change from baseline to final visit (Day 28) of nocturnal urine volume, mean (all males, 25 ug dose): -162 mL | Change from baseline to final visit (Day 28) of nocturnal urine volume, median (all males, 25 ug dose): -200 mL | Change from baseline to final visit (Day 28) of nocturnal urine volume, mean (all males, 50 ug dose): -286 mL | Change from baseline to final visit (Day 28) of nocturnal urine volume, median (all males, 50 ug dose): -246 mL | Change from baseline to final visit (Day 28) of nocturnal urine volume, mean (all males, 100 ug dose): -306 mL | Change from baseline to final visit (Day 28) of nocturnal urine volume, median (all males, 100 ug dose): -270 mL | Change from baseline to final visit (Day 28) of nocturnal urine volume, mean [9]: -91 mL | Change from baseline to final visit (Day 28) of nocturnal urine volume, median [9]: -54 mL | Change from baseline to final visit (Day 28) of nocturnal urine volume, mean [10]: -372 mL | Change from baseline to final visit (Day 28) of nocturnal urine volume, median [10]: -383 mL | Change from baseline to final visit (Day 28) of nocturnal urine volume, mean [11]: -208 mL | Change from baseline to final visit (Day 28) of nocturnal urine volume, median [11]: -203 mL
